Data published in EP0590998A1, “1-Styryl-3-t-butyl-1,3-propanedione derivative and external preparation for skin using the same” (SHISEIDO COMPANY LIMITED, priority 1992, dated 1994).

assay: Solubility of the 10% compounds in silicone base and squalane at room temperature; format: physicochemical; parameters: key: The compounds which can completely be dissolved in the solvents are indicated as ○; details: 10% compound in SILICONE KF56 (10cs), room temperature (25°C)
Source text: Solubilities of the following compounds 1 to 5 as examples of the 1-styryl-3-t-butyl-1,3-propanedione derivative and 2-hydroxy-4-methoxybenzophenone as a comparison are examined using the SILICONE KF56 (10cs; SHINETHU KACAKU INC.) as silicone base and squalane. Compound 1 : 1-styryl-3-t-butyl 1,3-propanedione Compound 2 : 1-p-methoxystyryl-3-t-butyl 1,3-propanedione Compound 3 : 1-p-(2-ethylhexyloxy)styryl-3-t-butyl 1,3-propanedione Compound 4 : 1-p-ethylstyryl-3-t-butyl1,3-propanedione compound 5 : 1-m-methylstyryl-3-t-butyl1,3-propanedione
The compounds which can completely be dissolved in the solvents are indicated as ○.

| SOLUBILITY SILICONE KF56(10%) | SMILES |
| --- | --- |
| DEPOSITION | COc1ccc(C(=O)c2ccccc2)c(O)c1 [COMPARISON 1, 2-hydroxy-4-methoxybenzophenone, reference compound] |
| ○ | CC(C)(C)C(=O)CC(=O)C=Cc1ccccc1 [Compound 1, 1-styryl-3-t-butyl 1,3-propanedione] |
| ○ | COc1ccc(C=CC(=O)CC(=O)C(C)(C)C)cc1 [Compound 2, 1-p-methoxystyryl-3-t-butyl 1,3-propanedione] |
| ○ | CCCCC(CC)COc1ccc(C=CC(=O)CC(=O)C(C)(C)C)cc1 (stereo not drawn) [Compound 3, 1-p-(2-ethylhexyloxy)styryl-3-t-butyl 1,3-propanedione] |
| ○ | CCc1ccc(C=CC(=O)CC(=O)C(C)(C)C)cc1 [Compound 4, 1-p-ethylstyryl-3-t-butyl1,3-propanedione] |
| ○ | Cc1cccc(C=CC(=O)CC(=O)C(C)(C)C)c1 [Compound 5, 1-m-methylstyryl-3-t-butyl1,3-propanedione] |

same assay, conditions: 10% compound in squalane, room temperature (25°C)

| SOLUBILITY SQUALANE(10%) | SMILES |
| --- | --- |
| DEPOSITION | COc1ccc(C(=O)c2ccccc2)c(O)c1 [COMPARISON 1, 2-hydroxy-4-methoxybenzophenone, reference compound] |
| ○ | CC(C)(C)C(=O)CC(=O)C=Cc1ccccc1 [Compound 1, 1-styryl-3-t-butyl 1,3-propanedione] |
| ○ | COc1ccc(C=CC(=O)CC(=O)C(C)(C)C)cc1 [Compound 2, 1-p-methoxystyryl-3-t-butyl 1,3-propanedione] |
| ○ | CCCCC(CC)COc1ccc(C=CC(=O)CC(=O)C(C)(C)C)cc1 (stereo not drawn) [Compound 3, 1-p-(2-ethylhexyloxy)styryl-3-t-butyl 1,3-propanedione] |
| ○ | CCc1ccc(C=CC(=O)CC(=O)C(C)(C)C)cc1 [Compound 4, 1-p-ethylstyryl-3-t-butyl1,3-propanedione] |
| ○ | Cc1cccc(C=CC(=O)CC(=O)C(C)(C)C)c1 [Compound 5, 1-m-methylstyryl-3-t-butyl1,3-propanedione] |

assay: Ultraviolet ray absorption, spectrophotometer, 10ppm in ethanol; format: physicochemical; parameters: key: absorbance of 10 ppm ethanol solution, 10 mm quartz cell; details: WAVELENGTH 300; 10ppm in ethanol (99.5%), quartz cell 10mm×10mm
Procedure: Ultraviolet ray absorptivities of the compound 1,3,5 and comparison (2-hydroxy-4-methoxybenzophenone; UV-A absorbent) were measured according to the following method.
The compound 1,3,5 and the comparison compound were dissolved in ethanol (99.5%) so as to the concentration being 10ppm, and absorption were measured by using quartz cell (10mm×10mm) and the spectrophotometer UVIDEC-610 (JASCO CORPORATION).

| absorption | SMILES |
| --- | --- |
| 0.60 | CC(C)(C)C(=O)CC(=O)C=Cc1ccccc1 [Compound 1, 1-styryl-3-t-butyl 1,3-propanedione] |
| 0.20 | CCCCC(CC)COc1ccc(C=CC(=O)CC(=O)C(C)(C)C)cc1 (stereo not drawn) [Compound 3, 1-p-(2-ethylhexyloxy)styryl-3-t-butyl 1,3-propanedione] |
| 0.50 | Cc1cccc(C=CC(=O)CC(=O)C(C)(C)C)c1 [Compound 5, 1-m-methylstyryl-3-t-butyl1,3-propanedione] |

same assay, conditions: WAVELENGTH 310; 10ppm in ethanol (99.5%), quartz cell 10mm×10mm

| absorption | SMILES |
| --- | --- |
| 0.82 | CC(C)(C)C(=O)CC(=O)C=Cc1ccccc1 [Compound 1, 1-styryl-3-t-butyl 1,3-propanedione] |
| 0.28 | CCCCC(CC)COc1ccc(C=CC(=O)CC(=O)C(C)(C)C)cc1 (stereo not drawn) [Compound 3, 1-p-(2-ethylhexyloxy)styryl-3-t-butyl 1,3-propanedione] |
| 0.72 | Cc1cccc(C=CC(=O)CC(=O)C(C)(C)C)c1 [Compound 5, 1-m-methylstyryl-3-t-butyl1,3-propanedione] |

same assay, conditions: WAVELENGTH 320; 10ppm in ethanol (99.5%), quartz cell 10mm×10mm

| absorption | SMILES |
| --- | --- |
| 1.08 | CC(C)(C)C(=O)CC(=O)C=Cc1ccccc1 [Compound 1, 1-styryl-3-t-butyl 1,3-propanedione] |
| 0.40 | CCCCC(CC)COc1ccc(C=CC(=O)CC(=O)C(C)(C)C)cc1 (stereo not drawn) [Compound 3, 1-p-(2-ethylhexyloxy)styryl-3-t-butyl 1,3-propanedione] |
| 1.00 | Cc1cccc(C=CC(=O)CC(=O)C(C)(C)C)c1 [Compound 5, 1-m-methylstyryl-3-t-butyl1,3-propanedione] |

same assay, conditions: WAVELENGTH 330; 10ppm in ethanol (99.5%), quartz cell 10mm×10mm

| absorption | SMILES |
| --- | --- |
| 1.33 | CC(C)(C)C(=O)CC(=O)C=Cc1ccccc1 [Compound 1, 1-styryl-3-t-butyl 1,3-propanedione] |
| 0.56 | CCCCC(CC)COc1ccc(C=CC(=O)CC(=O)C(C)(C)C)cc1 (stereo not drawn) [Compound 3, 1-p-(2-ethylhexyloxy)styryl-3-t-butyl 1,3-propanedione] |
| 1.26 | Cc1cccc(C=CC(=O)CC(=O)C(C)(C)C)c1 [Compound 5, 1-m-methylstyryl-3-t-butyl1,3-propanedione] |

same assay, conditions: WAVELENGTH 340; 10ppm in ethanol (99.5%), quartz cell 10mm×10mm

| absorption | SMILES |
| --- | --- |
| 1.40 | CC(C)(C)C(=O)CC(=O)C=Cc1ccccc1 [Compound 1, 1-styryl-3-t-butyl 1,3-propanedione] |
| 0.76 | CCCCC(CC)COc1ccc(C=CC(=O)CC(=O)C(C)(C)C)cc1 (stereo not drawn) [Compound 3, 1-p-(2-ethylhexyloxy)styryl-3-t-butyl 1,3-propanedione] |
| 1.36 | Cc1cccc(C=CC(=O)CC(=O)C(C)(C)C)c1 [Compound 5, 1-m-methylstyryl-3-t-butyl1,3-propanedione] |

same assay, conditions: WAVELENGTH 350; 10ppm in ethanol (99.5%), quartz cell 10mm×10mm

| absorption | SMILES |
| --- | --- |
| 1.24 | CC(C)(C)C(=O)CC(=O)C=Cc1ccccc1 [Compound 1, 1-styryl-3-t-butyl 1,3-propanedione] |
| 0.92 | CCCCC(CC)COc1ccc(C=CC(=O)CC(=O)C(C)(C)C)cc1 (stereo not drawn) [Compound 3, 1-p-(2-ethylhexyloxy)styryl-3-t-butyl 1,3-propanedione] |
| 1.24 | Cc1cccc(C=CC(=O)CC(=O)C(C)(C)C)c1 [Compound 5, 1-m-methylstyryl-3-t-butyl1,3-propanedione] |

same assay, conditions: WAVELENGTH 360; 10ppm in ethanol (99.5%), quartz cell 10mm×10mm

| absorption | SMILES |
| --- | --- |
| 0.96 | CC(C)(C)C(=O)CC(=O)C=Cc1ccccc1 [Compound 1, 1-styryl-3-t-butyl 1,3-propanedione] |
| 0.97 | CCCCC(CC)COc1ccc(C=CC(=O)CC(=O)C(C)(C)C)cc1 (stereo not drawn) [Compound 3, 1-p-(2-ethylhexyloxy)styryl-3-t-butyl 1,3-propanedione] |
| 0.98 | Cc1cccc(C=CC(=O)CC(=O)C(C)(C)C)c1 [Compound 5, 1-m-methylstyryl-3-t-butyl1,3-propanedione] |

same assay, conditions: WAVELENGTH 370; 10ppm in ethanol (99.5%), quartz cell 10mm×10mm

| absorption | SMILES |
| --- | --- |
| 0.50 | CC(C)(C)C(=O)CC(=O)C=Cc1ccccc1 [Compound 1, 1-styryl-3-t-butyl 1,3-propanedione] |
| 0.89 | CCCCC(CC)COc1ccc(C=CC(=O)CC(=O)C(C)(C)C)cc1 (stereo not drawn) [Compound 3, 1-p-(2-ethylhexyloxy)styryl-3-t-butyl 1,3-propanedione] |
| 0.54 | Cc1cccc(C=CC(=O)CC(=O)C(C)(C)C)c1 [Compound 5, 1-m-methylstyryl-3-t-butyl1,3-propanedione] |

same assay, conditions: WAVELENGTH 380; 10ppm in ethanol (99.5%), quartz cell 10mm×10mm

| absorption | SMILES |
| --- | --- |
| 0.26 | CC(C)(C)C(=O)CC(=O)C=Cc1ccccc1 [Compound 1, 1-styryl-3-t-butyl 1,3-propanedione] |
| 0.65 | CCCCC(CC)COc1ccc(C=CC(=O)CC(=O)C(C)(C)C)cc1 (stereo not drawn) [Compound 3, 1-p-(2-ethylhexyloxy)styryl-3-t-butyl 1,3-propanedione] |
| 0.32 | Cc1cccc(C=CC(=O)CC(=O)C(C)(C)C)c1 [Compound 5, 1-m-methylstyryl-3-t-butyl1,3-propanedione] |
